In PubChem BioAssay (NCI):
Values joined by “and” are separate entries in the source; they are usually repeats but may differ in a detail not shown here. Equal values may be shown once.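 Exposure lasted 48 hours, with cells grown in 96-well plates and compounds tested at five concentrations. Here, GI50 denotes the concentration required for 50% inhibition of growth. The concentration for full growth arrest is given as TGI.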

Tests used:
Experiment in all cases: NCI tumour cell line growth inhibition, 48 h
[1] = system: SK-MEL-5 melanoma
[2] = system: HCC-2998 colon
[3] = system: SK-MEL-2 melanoma
[4] = system: COLO 205 colon
[5] = system: HCT-116 colon
[6] = system: U251 CNS
[7] = system: MDA-MB-231 breast
[8] = system: RXF 393 renal
[9] = system: SW-620 colon
[10] = system: NCI-H23 lung

Row | SMILES | GI50 [1] [µM] | TGI [1] [µM] | GI50 [2] [µM] | TGI [2] [µM] | GI50 [3] [µM] | TGI [3] [µM] | GI50 [4] | TGI [4] | GI50 [5] | TGI [5] | GI50 [6] [µM] | TGI [6] | GI50 [7] [µM] | TGI [7] [µM] | GI50 [8] [µM] | TGI [8] | GI50 [9] [µM] | TGI [9] | GI50 [10] [µM] | TGI [10]
1 | O=S(=O)(Nc1ccc(Br)cc1)c1ccc(-c2cnc(C3CC3)o2)cc1 | 2.49 | 11.6 | 2.38 | 15.4 | 4.2 | 20.3 | 2.53 µM | 12.1 µM | 2.2 µM | 16 µM | 3.31 | 18.2 µM | 3.77 | 17.8 | 1.61 | 7.6 µM | 0.785 | 12.3 µM | 2.99 | 15.1 µM
2 | CCN1C(=O)N(CC)C2C1NN=c1s/c(=C\c3ccc(Cl)cc3Cl)c(=O)n12 (stereo unspecified) | 0.0247 | 0.0763 | 0.0367 | 10.9 | 0.0592 | > 60 | 0.0263 µM | 0.0748 µM | 0.0317 µM |  | 0.0365 | > 41.3 µM | 0.0336 | 4.79 | 0.0327 | 14.7 µM | 0.0439 | > 100 µM | 0.0505 | > 100 µM
3 | COc1ccc2c(c1)C(=O)/C(=C/c1cccc(OCC(=O)c3ccccc3)c1)CC2 | 4.14 | 16.5 | 25.8 | > 100 | 13.4 | > 100 | 88.5 µM | > 100 µM | 3.52 µM | > 100 µM | 16.8 | > 100 µM | 69.9 | > 100 | 0.0502 | 8.05 µM | 4.88 | > 100 µM | 18.9 | > 100 µM
4 | COc1ccc(-c2noc(C(=O)O)c2-c2cc(OC)c(OC)c(OC)c2)cc1 | 1.3 | > 100 | 5.75 | > 100 | 5.9 | > 100 | 1.95 µM | 9.49 µM | 0.752 µM | > 100 µM | 4.65 | > 100 µM | 7.66 | > 100 | 1.94 | 6.56 µM | 1.53 | > 100 µM | 9.17 | > 100 µM
5 | Cc1ccc(S(=O)(=O)SC/C=C\CSS(=O)(=O)c2ccc(C)cc2)cc1 |  | > 100 |  | > 100 |  | > 92.6 | 8.94 µM and 18.8 µM | 33.1 µM and 33.6 µM | 5.31 µM and 19.9 µM | 29.7 µM and 41.4 µM |  | 66.3 µM and 34.7 µM |  | > 31.6 |  | 77.1 µM and 36.6 µM |  | 74.2 µM and 29.8 µM |  | 73.9 µM and 34.7 µM
6 | O=[N+]([O-])c1ccccc1N=Nc1c(O)[nH]c2cccc(C(F)(F)F)c12 |  | > 100 |  | > 100 |  | > 100 |  | > 100 µM |  | > 100 µM |  | > 100 µM |  | 91.3 |  | > 100 µM |  | > 100 µM |  | 88 µM
7 | Cc1c2cnccc2c(C)c2c1c1cc(C#N)ccc1n2C | 0.224 | 0.591 | 0.293 | 1.55 | 0.256 | 0.771 | 0.18 µM | 1.08 µM | 0.0434 µM | 0.593 µM | 0.204 | 1.12 µM | 0.237 | 1.1 | 0.128 | 0.393 µM | 0.0695 | 1.17 µM | 0.172 | 0.649 µM
8 | O=C(c1ccc2ccccc2c1)c1c(C(F)(F)F)n([O-])c2ccc(C(F)(F)F)cc2[n+]1=O | 0.927 | 2.37 | 1.69 | 3.27 | 1.96 | 3.77 | 0.724 µM | 1.83 µM | 0.498 µM | 1.16 µM | 0.302 | 0.742 µM | 1.48 | 2.95 | 0.974 | 2.54 µM | 0.514 | 1.11 µM | 3.4 | 10.2 µM
9 | O=C1/C(=C/c2ccc([N+](=O)[O-])cc2)CN(C(=O)CCN2CCC(=NO)CC2)C/C1=C\c1ccc([N+](=O)[O-])cc1 | 1.99 | 4.38 | 1 | 2.62 | 4.74 | 16.6 | 2.33 µM | 5.93 µM | 0.552 µM | 1.53 µM | 0.509 | 2.03 µM | 0.869 | 2.92 | 1.49 | 3.14 µM | 0.311 | 0.982 µM | 1.53 | 4.58 µM
